Experiments:
[1] = tested on: prostaglandin biosynthesis in vivo; experiment: Rat Carrageenan Pleural Inflammation (CIP) Model; conditions: 10 mg/kg oral, 30 minutes prior to intrapleural carrageenan, lavage four hours later
Protocol: For oral administration, test compounds were suspended on the day of use in 100% polyethyleneglycol (PEG 400) with a motorized homogenizer equipped with a Teflon-coated pestle (TRI-R Instrument, Jamaica, N.Y.).
(§1) To compare the mean responses of the treatment groups, analysis of variance was applied. Percent inhibition values were determined by comparing the individual treatment mean values to the mean of the control group. Linear regression was used to estimate IC50's/ED50's in appropriate assays.
(§2) EIA reagents for prostaglandin determination were purchased from Perseptive Diagnostics, (Cambridge, Mass.). Prostaglandin E2 (PGE2) levels in lavage fluids were determined after the samples were dried under nitrogen and reconstituted with assay buffer. PGE2 levels in enzyme assays or cell culture media were measured against standards prepared in the same milieu. The immunoassays were conducted as recommended by the manufacturer. The EIA was conducted in 96 well microtiter plates (Nunc Roskilde, Denmark) and optical density was measured using a microplate reader (Vmax, Molecular Devices Corp., Menlo Park, Calif.).
Pleural inflammation was induced in male adrenalectomized Sprague-Dawley rats following the method of Vinegar et al., Fed. Proc. 1976, 35, 2447-2456. […] Eicosanoids were determined by EIA as described above. […]

[2] = biological target: T1, recombinant human Cox-1 (r-hu Cox-1, PGHS-1) (Homo sapiens, UniProt P23219); experiment: Recombinant human PGHS-1 (r-hu Cox-1) enzyme assay, PGE2 by EIA; assay type: biochemical; conditions: at 100 μM; read-out: r-hu COX1 percent inhibition
T1 construct: made in house; host or cells: baculovirus/Sf9 insect cells (microsomes)
Protocol: as §1, §2
(§3) Inhibition of prostaglandin biosynthesis in vitro was evaluated using recombinant human Cox-1 (r-hu Cox-1) and Cox-2 (r-hu Cox-2) enzyme assays. […] The reaction was allowed to run for 2.5 minutes at room temperature prior to quenching with HCl and neutralization with NaOH. PGE2 production in the presence and absence of the drug was determined by EIA analysis. The EIA was conducted in 96 well microtiter plates (Nunc Roskilde, Denmark) and optical density was measured using a microplate reader (Vmax, Molecular Devices Corp., Menlo Park, Calif.). EIA reagent for prostaglandin determination were purchased from Perseptive Diagnostics (Cambridge, Mass.). PGE2 levels were measured against standards prepared in the same milieu. The immunoassays were conducted as recommended by the manufacturer.
(§4) The compounds are designated by the Example Number. […] Values for Cox-2 inhibition that are parenthetical indicate IC50 values.

[3] = biological target: T2, recombinant human Cox-2 (r-hu Cox-2, PGHS-2) (Homo sapiens, UniProt P35354); experiment: Recombinant human PGHS-2 (r-hu Cox-2) enzyme assay, PGE2 by EIA; assay type: biochemical; conditions: read-out: r-hu COX2 percent inhibition
T2 construct: made in house; host or cells: baculovirus/Sf9 insect cells (microsomes)
T2 sequence (P35354 18-604): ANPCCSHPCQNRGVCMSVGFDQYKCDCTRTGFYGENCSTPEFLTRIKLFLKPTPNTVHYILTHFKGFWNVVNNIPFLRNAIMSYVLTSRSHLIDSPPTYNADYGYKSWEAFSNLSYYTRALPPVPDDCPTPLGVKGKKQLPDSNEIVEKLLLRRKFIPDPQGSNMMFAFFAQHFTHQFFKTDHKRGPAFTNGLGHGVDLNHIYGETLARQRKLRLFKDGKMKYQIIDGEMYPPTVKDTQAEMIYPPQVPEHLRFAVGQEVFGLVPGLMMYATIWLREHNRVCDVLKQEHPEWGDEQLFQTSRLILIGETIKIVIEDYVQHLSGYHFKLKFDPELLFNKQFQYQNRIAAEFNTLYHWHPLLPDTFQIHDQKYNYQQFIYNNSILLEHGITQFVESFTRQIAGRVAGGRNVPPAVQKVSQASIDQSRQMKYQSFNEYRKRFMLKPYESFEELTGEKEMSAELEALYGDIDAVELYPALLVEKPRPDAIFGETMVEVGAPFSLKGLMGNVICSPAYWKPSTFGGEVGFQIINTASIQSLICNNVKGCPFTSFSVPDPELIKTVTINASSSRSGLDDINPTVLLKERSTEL
Protocol: as §1, §2, §3, §4

[4] = tested on: IL-1β induced PGE2 production in human amnionic WISH cells; experiment: IL-1β Induced PGE2 Production in WISH Cells; assay type: cell-based; conditions: Homo sapiens, IL-1β 18 hour, read-out: WISH percent inhibition
Protocol: as §2
Human amnionic WISH cells were grown to 80% confluence in 48 well plates. Following removal of the growth medium and two washings with Gey's Balanced Salt Solution, 5 ng IL-1β/ml (UBI, Lake Placid, N.Y.) was added to the cells with or without test compound in DMSO (0.01% v/v) in Neuman-Tytell Serumless Medium (GIBCO, Grand Island, N.Y.). Following an 18 hour incubation to allow for the maximal induction of PGHS-2, the conditioned medium was removed and assayed for PGE2 content by EIA anylysis as described above.
WISH cell values indicate percent inhibition at the particular dose level.

T1 sequence (P23219 24-599): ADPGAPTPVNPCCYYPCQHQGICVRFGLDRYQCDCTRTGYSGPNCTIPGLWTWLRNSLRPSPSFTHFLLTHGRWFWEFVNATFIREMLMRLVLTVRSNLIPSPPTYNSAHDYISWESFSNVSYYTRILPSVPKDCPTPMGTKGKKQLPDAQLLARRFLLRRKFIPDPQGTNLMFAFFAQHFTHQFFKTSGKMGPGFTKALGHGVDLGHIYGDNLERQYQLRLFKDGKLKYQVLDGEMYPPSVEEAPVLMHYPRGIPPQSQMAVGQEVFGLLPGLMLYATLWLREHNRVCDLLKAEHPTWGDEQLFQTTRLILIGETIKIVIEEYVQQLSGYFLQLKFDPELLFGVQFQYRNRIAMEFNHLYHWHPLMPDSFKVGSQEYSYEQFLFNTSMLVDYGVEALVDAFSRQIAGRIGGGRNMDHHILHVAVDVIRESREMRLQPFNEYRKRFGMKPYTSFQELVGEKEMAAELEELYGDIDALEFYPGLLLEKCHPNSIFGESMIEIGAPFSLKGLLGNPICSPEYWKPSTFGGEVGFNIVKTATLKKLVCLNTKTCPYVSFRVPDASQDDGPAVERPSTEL

Structure (SMILES)	melting point	inhibition at 100 µM [2]	inhibition at 0.1 µM ([3]; at 100 nM)	inhibition at 10 µM ([3]; at 10000 nM)	CIP Inh @ 10 mpk [1]	inhibition at 0.001 µM ([4]; at 1 (nM))	inhibition at 10 pM ([4]; at 0.01 (nM))	inhibition at 1 pM ([4]; at 0.001 (nM))
CS(=O)(=O)c1ccc(-c2c(-c3ccc(F)cc3)c(OCC(=O)c3ccccc3)nn2CC(=O)c2ccccc2)cc1 [Example 12, 2-[4-(4-Fluorophenyl)-5-(4-(methylsulphonyl)phenyl)-3-(2-oxo-2-phenylethoxy)-1H-pyrazol-1-yl]-1-phenylethan-1-one]	151 to 152 °C	0%			38%			
CS(=O)(=O)c1ccc(-c2c(-c3ccc(F)cc3)c(OCC(=O)c3ccc(F)cc3)nn2CC(=O)c2ccc(F)cc2)cc1 [Example 13, 2-[4-(4-Fluorophenyl)-5-(4-(methylsulphonyl)phenyl)-3-(2-oxo-2-(4-fluorophenyl)ethoxy)-1H-pyrazol-1-yl]-1-(4-fluorophenyl)ethan-1-one]	194 to 196 °C	17%	90%		22%			

Second part, led by results:

melting point	inhibition at 100 µM [2]	inhibition at 0.1 µM ([3]; at 100 nM)	inhibition at 10 µM ([3]; at 10000 nM)	Structure (SMILES)	CIP Inh @ 10 mpk [1]	inhibition at 0.001 µM ([4]; at 1 (nM))	inhibition at 10 pM ([4]; at 0.01 (nM))	inhibition at 1 pM ([4]; at 0.001 (nM))
181 to 182 °C	27%		43%	CCn1nc(OC2COCCC2=O)c(-c2ccc(F)cc2)c1-c1ccc(S(C)(=O)=O)cc1 (stereo not drawn) [Example 23, 3-[(1-Ethyl-4-(4-fluorophenyl)-5-(4-(methylsulphonyl)phenyl)-1H-pyrazol-3-yl)oxy]tetrahydro-4H-pyran-4-one]		80%		
189 to 191 °C				CC(=O)n1nc(OCC(=O)C(C)(C)C)c(-c2ccccc2)c1-c1ccc(S(C)(=O)=O)cc1 [Example 32, 1-[(1-Acetyl-5-(4-(methylsulphonyl)phenyl)-4-phenyl-1H-pyrazol-3-yl)oxy]-3,3-dimethylbutan-2-one]			47%	
158 to 161 °C				CCn1nc(OCC(=O)C(C)(C)C)c(-c2ccccc2)c1-c1ccc(S(C)(=O)=O)cc1 [Example 33, 1-[(1-Ethyl-5-(4-(methylsulphonyl)phenyl)-4-phenyl-1H-pyrazol-3-yl)oxy]-3,3-dimethylbutan-2-one]				78%

From patent publication US6472416B1, “Sulfonylphenylpyrazole compounds useful as COX-2 inhibitors” (Abbott Laboratories, priority 1999, dated 2002)
